Laboratory results taken from patent US8003345B2, “Antioxidant pharmaceutical compound, method for producing polypeptide and method of cure” (Institute of Cell Biophysics Russian Academy of Sciences, priority 2002, dated 2011).

Tests used:
glutamine synthetase = assay: Comparative characteristics of peroxiredoxin activators (glutamine synthetase protection against metal-catalyzed oxidative system); assay type: biochemical; conditions: 50 μg peroxiredoxin VI, FIG. 11
Method: The antioxidant activity was determined from the degree of glutamine synthetase protection against metal-catalyzed oxidative system. The antioxidant effectiveness of thiols was determined in molar concentration, at which 50% protection of glutamine synthetase took place.
For determining the effectiveness of peroxiredoxin activation with dithiothreitol or with dihydrolipoic acid (natural activator), use is made of the ability of peroxiredoxin to protect glutamine synthetase from inactivation caused by the metal-catalyzed oxidative system.
The degree of the peroxiredoxin activity was determined from the protein concentration value, at which 50% preservation of the glutamine synthetase activity was observed.

[1] = system: tracheal epithelium of rat after application of lipopolysaccharide; assay: Inflammation of rat tracheal epithelium caused by lipopolysaccharide (LPS); assay type: in vivo
Method: The therapeutic properties of peroxiredoxin Prx VI in treating the upper respiratory tract of rat immediately after the application of LPS were checked on a group of 4 Wistar line rats weighing 150-200 grams. The application of LPS was carried out in the following manner. The rats were anesthetized with hexenal, and 100 μl of a lipopolysaccharide solution were introduced through a catheter (the lipopolysaccharide concentration was from 10^−9 to 10^−11 mg/ml, the total number of the used animals was 20). After the application of the lipopolysaccharide, the rats were maintained for a definite period of time (1 hour, 3 hours, 6 hours, 7 hours, 9 hours), then narcotized with hexenal (300 mg/kg weight), and a sample of the tracheal epithelial tissue was isolated. For histochemical investigations the isolated sample was placed into a fixing solution containing 2% of formaldehyde and 0.5% of glutaraldehyde. The tissue was dehydrated by sequential routing through ethyl alcohol with increasing concentration (40-100%). The tissue was embedded into LR white resin. The resin was polymerized at room temperature. 0.5 em-thick sections were made on an LKB ultratome (Sweden), using glass knives. The sections were stained with a hematoxylin-eosine and analyzed under a light microscope.
For biochemical investigations we scraped the epithelium with a thin spatula, washed off the scrape with physiological solution and centrifugated at 10000 g for 15 min. The concentration of hydrogen peroxide was by the luminescence method. […] After LPS, application of a solution of a composition based on peroxiredoxin Prx VI into the trachea was carried out. Preliminarily the rats were narcotized by intraperitoneal administration of hexenal (70 mg/kg), the animals were fixed on an operating table, and under visual control with the aid of a binocular lens, through a catheter of 1 mm in diameter, peroxiredoxin solution (20 to 100 μl) was introduced into the trachea. The peroxiredoxin concentration was from 0.5 to 5.0 mg/ml. A 0.9% solution of NaCl was used as the solvent. The application of the solution of the composition was carried out once, immediately after the application of LPS. The application of pure solvent, solutions of serum albumin (10 mg/ml) and of glutathione (10 mM) were used as control.
Histological investigation of the trachea was carried out 24 hrs after the LPS application.

[2] = system: tracheal epithelium of rat after application of lipopolysaccharide; assay: as above; assay type: in vivo; remark: listed apart in the source
[3] = system: glutamine synthetase of E.coli; conditions: DTT/Fe3+/O2 oxidative system, 3 mM activator, 10 min at 37° C.; FIG. 3
Method: Comparison of the protector properties of recombinant full-size Prx Vlhum with the protector properties of natural rat Prx VIrat and with the protector properties of N-terminal ΔPrx V1hum in terms of protecting glutamine synthetase of E.coli from inactivation in a model oxidative system in vitro.
For determining the activity of different types of peroxiredoxins, their ability to protect glutamine synthetase from the DTT/Fe^+3/O2 oxidative system is measured. Glutamine synthetase is isolated from cells of the E.coli DH5α strain (Streicher S. L., Tyler B., 1980) and inactivated in the presence of a Fe^3+/O2 oxidative system and a peroxiredoxin activator—in the model oxidative system generating free radicals (Kim K. et al., 1988). […] The residual activity of glutamine synthetase is assessed by adding to the sample 200 μl of a reaction mixture which comprises: ADP, 0.4 mM; glutamine, 150 mM; K—AsO4, 10 mM; NH2OH, 20 mM; MnCl2, 0.4 mM; HEPES, 100 mM, pH 7.4. […] The protector properties of peroxiredoxin for protecting glutamine synthetase of E.coli from inactivation are determined as the ratio of the remaining activity of the enzyme after the inactivation in the presence of different concentrations of peroxiredoxin to the activity of non-inactivated glutamine synthetase.

skin cuts of rats = assay: Treating skin wounds (cuts) in rats; assay type: in vivo, rat; conditions: in 5 days; 0.5 mg/ml in 0.15 M NaCl, bandages changed once a day; against control; FIG. 10
Method: Rats were preliminarily narcotized by intraperitoneal introduction of hexenal (70 mg/kg). The animals were fixed on an operating table, and then 2-3 mm deep and 1 cm long cuts were made in the skin of both paws with the help of a razor blade. Control cuts were irrigated with physiological solution and a bactericidal plaster was applied; in the case of using peroxiredoxin, the wound was irrigated with a solution of recombinant Prx Vlhum or of its fragment ΔPrx Vlhum in 0.15 M NaCl in 0.5 mg/ml concentration, and a gauze bandage soaked with the same solutions was applied. The bandages were changed once a day.

[4] = system: T-lymphocytes from the spleen of line NRRI rats stimulated with concavalin A; assay: Proliferation of concanavalin A-stimulated T-lymphocytes (3H-thymidine inclusion); assay type: cell-based; conditions: 0.1-1.0 mg/ml concentration, against cells stimulated only with concavalin A
Method: (§1) The cytotoxicity is determined from the influence of recombinant Prx V1hum or of natural rat Prx V1rat on the level of proliferation of line L929 human lymphoblastoma cells and of T-lymphocytes from the spleen of line NRRI rats stimulated with concavalin A.
(§2) Cells of two lines with the concentration of 10^4 cells/ml medium were cultivated in RPMI 1640 containing 5% of bovine fetal serum. The stimulation of T-lymphocytes was carried out with the 0.1 μg/ml concentration of concavalin. In the case of T-lymphocytes the proliferation level was determined from the inclusion of ^3H-thymidine. The number of live line L929 cells was determined in a 96-cell plate with the aid of a Trypan stain, followed by scanning on a Multiscan multichannel photometer (LKB, Sweden).

[5] = Cytotoxicity: number of live line L929 cells; assay type: cell-based, human; conditions: 0.1-10 μg/ml concentration; Trypan stain
Method: as §1, §2

O=C(O)CCCC[C@@H](S)CCS (racemic) [dihydrolipoic acid]
antioxidant effectiveness of thiols (degree of glutamine synthetase protection) (glutamine synthetase): almost equal to dithiothreitol and substantially surpasses the effectiveness of lipoic acid

N[C@@H](CCC(=O)N[C@@H](CS)C(=O)NCC(=O)O)C(=O)O [Glutathione, glutathione, reference compound]
Integrity of tracheal epithelium (according to histological data) ([1]; Time after the action of LPS: 1 hour): 30% | Integrity of tracheal epithelium (according to histological data) ([1]; Time after the action of LPS: 3 hours): 20% | Integrity of tracheal epithelium (according to histological data) ([1]; Time after the action of LPS: 6 hours): 10% | Integrity of tracheal epithelium (according to histological data) ([2]; Treatment 24 hours later for 5 days and the integrity of epithelium 2 weeks later): 20% | effect on tracheal epithelium after LPS (in words) ([2]; other antioxidants, see Table 2): no significant effect

B1: ΔPrx VIhum: N-terminal fragment of human peroxiredoxin Prx VI (SEQ ID NO: 2), length 177 a.b., molecular mass 19691.61 Da (protein, listed as Homo sapiens)
chain: MPGGLLLGDVAPNFEANTTVGRIRFHDFLGDSWGILFSHPRDFTPVCTTELGRAAKLAPEFAKRNVKLIALSIDSVEDHLAWSKDINAYNCEEPTEKLPFPIIDDRNRELAILLGMLDPAEKDEKGMPVTARVVFVFGPDKKLKLSILYPATTGRNFDEILRVVISLQLTAEKRVATPVDWKDGDSVMVLPTIPEEEAKKLFPKGVFTKELPSGKKYLRYTPQP
protector properties: antioxidant characteristics in protecting glutamine synthetase from inactivation [3]: close to the recombinant full-size Prx Vlhum | healing of the wound (skin cuts of rats): almost complete healing of the wound

B2: Prx VIrat: natural peroxiredoxin isolated from the olfactory epithelium of a Wistar line rat, 223 amino acids (protein, UniProt O35244 2-224, looked up)
Peroxiredoxin-6: PGGLLLGDEAPNFEANTTIGHIRFHDFLGDSWGILFSHPRDFTPVCTTELGRAAKLAPEFAKRNVKLIALSIDSVEDHFAWSKDINAYNGAAPTEKLPFPIIDDKDRDLAILLGMLDPAEKDEKGMPVTARVVFIFGPDKKLKLSILYPATTGRNFDEILRVVDSLQLTASNPVATPVDWKKGESVMVLPTLPEEEAKQLFPKGVFTKELPSGKKYLRYTPQP
cell proliferation level of T-lymphocytes stimulated with concavalin A [4]: increased approximately twofold | effect on the number of live line L929 cells [5]: did not produce any effect
